Patent US7674792B2, “5(Z)-5-(6-quinoxalinylmethylidene)-2-[2,6-dichlorophenyl)amino]-1,3-thiazol-4(5H)-one” (GlaxoSmithKline LLC, priority 2005, dated 2010)
Where a name gives a salt, the structure may show the parent alone.

Legend:
[1] = solubility in pH 7.4 phosphate buffer by HPLC; type: physicochemical; details: 25 °C, aqueous buffer; sodium salt; pH 7.4, 0.05M phosphate buffer; maximum total concentration 200 uM; 25 deg; read-out: Solvent Solubility at 25 deg, Water pH 7.4
Protocol: The solubility of each compound was determined as follows: two samples are prepared for each compound. One (the standard sample) contains the compound at a fixed concentration of 20 uM in an aqueous/organic mixed solvent cocktail. The other (the test sample) contains the compound at a maximum total concentration of 200 uM in pH 7.4, 0.05M phosphate buffer. The test sample is spun for 15 minutes to remove any undissovled solid. HPLC analyses are performed on these samples. The relative peak areas are used for computing the solubility. The sodium salt of each compound was used for the comparison.

[2] = oral blood exposure (DNAUC) in rats; type: in vivo, male Sprague-Dawley rats; design: unit not given here; details: sodium salt, oral gavage, dose ~1-4 mg/kg, 50% PEG-400, 10% ethanol, 40% of 40% (w/v) aqueous Encapsin
Protocol: Blood (120 microliters) was sampled at the following time intervals: 0, 20, 40, 60,120,180, 240, 360, 480, and 1440 min. […] The oral exposures of the sodium salt of Compound B and the sodium salt of Compound C were quantified by the same method.

[3] = physical and chemical stability / hygroscopicity of the crystalline compound; type: physicochemical
[4] = bioavailability in the Beagle dog; type: in vivo

Row | Structure (SMILES) | solubility [1] [µM] | Oral DNAUC rats (Sprague-Dawley) [2] | hygroscopicity [3] | physical and chemical stability [3] | bioavailability [4]
1 | O=C1NC(=Nc2c(Cl)cccc2Cl)S/C1=C\c1ccc2nccnc2c1 [Compound A · Na, (5Z)-5-(6-quinoxalinylmethylidene)-2-[(2,6-dichlorophenyl)amino]-1,3-thiazol-4(5H)-one sodium salt] | 31 | – | – | – | –
2 | O=C1NC(=Nc2c(Cl)cccc2Cl)S/C1=C\c1ccc2ncccc2c1 [Compound B · Na, 2-(2,6-dichloro-phenylimino)-5-(quinolin-6-ylmethylene)-thiazolidin-4-one sodium salt, reference compound] | 6 | 0.49 | – | – | –
3 | O=C1NC(=Nc2ccccc2Cl)S/C1=C\c1ccc2nccnc2c1 [Compound C · Na, 2-(2-chloro-phenylimino)-5-(quinoxalin-6-ylmethylene)-thiazolidin-4-one sodium salt] | – | 0.34 | – | – | –
4 | O=C1NC(=Nc2c(Cl)cccc2Cl)S/C1=C\c1ccc2nccnc2c1 [Compound D, (5Z)-5-(6-quinoxalinylmethylidene)-2-[(2,6-dichlorophenyl)amino]-1,3-thiazol-4(5H)-one meglumine] | – | – | non-hygroscopic | physically and chemically stable | demonstrated bioavailability
